# Laboratory results reported in patent publication US11952593B2, “Detection and treatment of daughter number variations in cancer cells” (PharmacoGenetics Limited, priority 2020, dated 2024).
# How the values were obtained:
# Assay type in all cases: cell-based, human
# A549 cells [1] = experiment: Cell cytotoxicity assay (crystal violet), A549; settings: A549, 24 hours, 50 μM wogonin, 20 μM 5-FU, absorbance 600 nm
# Description: (§1) Cell cytotoxicity assay was carried out on 96 well plate, where cells were treated with neutral, acidic, alkaline pH and anti-cancer drug wogonin or 5-FU. After 24 hours, crystal violet (8% in methanol), and dye absorbed by live cells was extracted with sodium citrate (0.1 M) in 50% ethanol. Absorbance was read at 600 nm.
# (§2) HepG2, HeLa and A549 cells were grown to a monolayer density of 1×10^3 per well in neutral growth medium overnight. There upon the cells were changed to various treatment media at neutral, acidic and alkaline pHs, neutral medium containing 50 μM wogonin and neutral medium containing 20 μM 5-FU, for 24 hours at 37° C. in humidified 5% CO2 atmosphere. Following the treatment, floating cells were removed, and the attached cells were stained with crystal violet (8% in methanol); the dye absorbed by the live cells was extracted with sodium citrate (0.1 M) in 50% ethanol [1 25], and quantitated by absorbance at 600 nm.
# HepG2 cells [2] = experiment: Daughter-cell subgroups P1 through P8 in mitoses with DNV, HepG2; settings: HepG2, 24 hours, wogonin 50 μM, 5-FU 20 μM
# Excerpt: (§3) “Daughter Number Variation” is a process that occurs during mitosis, where more than two daughter cells are produced per mitotic division. It is a two-stage process, wherein cell divisions of mono-nucleate, bi-nucleate, tri-nucleate and tetra-nucleate mother cells at Stage 1 produce subgroups of single mono-nucleate cells (herein referred to as P1), and subgroups containing one bi-nucleate cell and two mono-nucleate cells (herein referred to as P2). Stage 1 is followed by Stage 2, during which time some of the daughter cells from Stage 1 fuse to produce multi-nucleate cell subgroups, where the different subgroups differ with respect to the number of constituent cells and their nucleate status (herein referred to as P3 through P8). All the subgroups from a single DNV mitosis stay close to one another to form a distinct cluster when the cell culture is not overly dense with cells.
# (§4) P1 subgroup cells are daughter mono-nucleate cells resulting from mitoses with DNV that have not undergone any post-mitotic cell fusion. P2 subgroup daughter cells are clusters of one bi-nucleate cell and two mono-nucleate cells, which also have not undergone any post-mitotic cell fusion during DNV, whereas each of the multi-nucleated subgroups contains at least one cell that is generated from post-mitotic fusions between the Stage 1 cells. P3 through P8 are daughter cell subgroups, which result from cell fusions during DNV, and wherein each subgroup includes at least one multinucleate cell.
# (§5) By way of example and not of limitation, there is at least one multinucleate cell with two nuclei in P3 and P5, one multinucleate cell with three nuclei in P4 and P6, one multinucleate cell with four nuclei in P7, and one multinucleate cell with five nuclei in P8, sharing the same cytoplasm. More specifically, P3 cell subgroups are clusters of one multinucleate cell with two nuclei and one mononucleate cell, P4 cell subgroups are one multinucleate cell with three nuclei, P5 cell subgroups are clusters of either two multinucleate cells with two nuclei or one multinucleate cell with two nuclei and one binucleate cell, P6 cell subgroups are clusters of one multinucleate cell with three nuclei and one mononucleate cell, P7 cell subgroups are one multinucleate cell with four nuclei, and P8 cell subgroups are one multinucleate cell with five nuclei. P1 through P8 cell subgroups are depicted in detail in FIG. 2.
# (§6) The counts of P1 and P2 subgroups of cancer cells are then used to obtain their proportions based on the total number of cell subgroups P1 through P8 that resulted from mitotic DNVs during the predetermined period of time. The proportions are typically expressed as percentages. The proportion of P1 subgroup of cells is calculated as (number of P1 subgroups)+(total number of daughter cell subgroups)×100%, and the proportion of (P1 and P2) subgroup is calculated as (number of P1 subgroups+number of P2 subgroups)+(total number of daughter cell subgroups)×100%. This can also be expressed as (number of P1 subgroups)+(total number of P1 through P8 subgroups)×100%, or (number of P1 subgroups+number of P2 subgroups)+(total number of P1 through P8 subgroups)×100%, respectively.
# (§7) To investigate DNVs, the human HepG2 hepatocellular carcinoma, HeLa cervical adenocarcinoma, and A549 lung adenocarcinoma cell lines, as well as the non-cancerous RPE1 line of hTRET-immortalized retina epithelial cells, were obtained from the American Type Culture Collection (ATCC, Manassas, Va., USA) and cultivated in Dulbecco's Modified Eagle Medium (DMEM) supplemented with 10% fetal bovine serum (Gemini Bio-Products, Sacramento. Calif.) under a humidified atmosphere of 5% C02 at 37° C. […]
# HepG2 cells [3] = experiment: Cell cytotoxicity assay (crystal violet), HepG2; settings: HepG2, 24 hours, 50 μM wogonin, 20 μM 5-FU, absorbance 600 nm
# Description: as §1, §2
# A549 cells [4] = experiment: Daughter-cell subgroups P1 through P8 in mitoses with DNV, A549; settings: A549, 24 hours, wogonin 50 μM, 5-FU 20 μM
# Excerpt: as §3, §4, §5, §6, §7
# HeLa cells = experiment: Daughter-cell subgroups P1 through P8 in mitoses with DNV, HeLa; settings: 24 hours, wogonin 50 μM, 5-FU 20 μM
# Excerpt: as §3, §4, §5, §6, §7
smiles,measurement,setting,value
"O=c1[nH]cc(F)c(=O)[nH]1 [5-FU, 5-flurouracil]",Cell death as compared to neutral pH,A549 cells [1],increased cell death
same,"Mitoses with DNV, number",HepG2 cells [2],17
same,"P1 + P2 subgroups, number",HepG2 cells [2],6
same,"P1 subgroups, number",HepG2 cells [2],3
same,"P2 subgroups, % of all P1 through P8 subgroups",HepG2 cells [2],(17.6) %
same,"P2 subgroups, number",HepG2 cells [2],3
same,"P3 subgroups, % of all P1 through P8 subgroups",HepG2 cells [2],(35.2) %
same,"P3 subgroups, number",HepG2 cells [2],6
same,"P4 subgroups, number",HepG2 cells [2],0
same,"P5 subgroups, % of all P1 through P8 subgroups",HepG2 cells [2],(11.7) %
same,"P5 subgroups, number",HepG2 cells [2],2
same,"P6 subgroups, % of all P1 through P8 subgroups",HepG2 cells [2],(17.6) %
same,"P6 subgroups, number",HepG2 cells [2],3
same,"P7 subgroups, number",HepG2 cells [2],0
same,"P8 subgroups, number",HepG2 cells [2],0
same,Cell death as compared to neutral pH,HepG2 cells [3],increased cell death
same,"Mitoses with DNV, number",A549 cells [4],3
same,"P1 + P2 subgroups, number",A549 cells [4],3
same,"P1 subgroups, number",A549 cells [4],3
same,"P2 subgroups, number",A549 cells [4],0
same,"P3 subgroups, number",A549 cells [4],0
same,"P4 subgroups, number",A549 cells [4],0
same,"P5 subgroups, number",A549 cells [4],0
same,"P6 subgroups, number",A549 cells [4],0
same,"P7 subgroups, number",A549 cells [4],0
same,"P8 subgroups, number",A549 cells [4],0
same,"Mitoses with DNV, number",HeLa cells,13
same,"P1 + P2 subgroups, number",HeLa cells,12
same,"P1 subgroups, number",HeLa cells,10
same,"P2 subgroups, % of all P1 through P8 subgroups",HeLa cells,(15.3) %
same,"P2 subgroups, number",HeLa cells,2
same,"P3 subgroups, % of all P1 through P8 subgroups",HeLa cells,(7.6) %
same,"P3 subgroups, number",HeLa cells,1
same,"P4 subgroups, number",HeLa cells,0
same,"P5 subgroups, number",HeLa cells,0
same,"P6 subgroups, number",HeLa cells,0
same,"P7 subgroups, number",HeLa cells,0
same,"P8 subgroups, number",HeLa cells,0
"COc1c(O)cc(O)c2c(=O)cc(-c3ccccc3)oc12 [Wogonin, wogonin]",Cell death as compared to neutral pH,A549 cells [1],increased cell death
same,"Mitoses with DNV, number",HepG2 cells [2],63
same,"P1 + P2 subgroups, % of all P1 through P8 subgroups",HepG2 cells [2],(60.3) %
same,"P1 + P2 subgroups, number",HepG2 cells [2],38
same,"P1 subgroups, % of all P1 through P8 subgroups",HepG2 cells [2],(42.8) %
same,"P1 subgroups, number",HepG2 cells [2],27
same,"P2 subgroups, % of all P1 through P8 subgroups",HepG2 cells [2],(17.4) %
same,"P2 subgroups, number",HepG2 cells [2],11
same,"P3 subgroups, % of all P1 through P8 subgroups",HepG2 cells [2],(12.7) %
same,"P3 subgroups, number",HepG2 cells [2],8
same,"P4 subgroups, % of all P1 through P8 subgroups",HepG2 cells [2],(14.2) %
same,"P4 subgroups, number",HepG2 cells [2],9
same,"P5 subgroups, % of all P1 through P8 subgroups",HepG2 cells [2],(4.7) %
same,"P5 subgroups, number",HepG2 cells [2],3
same,"P6 subgroups, % of all P1 through P8 subgroups",HepG2 cells [2],(4.7) %
same,"P6 subgroups, number",HepG2 cells [2],3
same,"P7 subgroups, % of all P1 through P8 subgroups",HepG2 cells [2],(3.1) %
same,"P7 subgroups, number",HepG2 cells [2],2
same,"P8 subgroups, number",HepG2 cells [2],0
same,"P1 + P2 subgroups, % of all P1 through P8 subgroups",HepG2 cells [2]; listed as wogonin,60.3%
same,"P1 subgroups, % of all P1 through P8 subgroups",HepG2 cells [2]; listed as wogonin,42.8%
same,Cell death as compared to neutral pH,HepG2 cells [3],increased cell death
same,"Mitoses with DNV, number",A549 cells [4],7
same,"P1 + P2 subgroups, % of all P1 through P8 subgroups",A549 cells [4],(57.1) %
same,"P1 + P2 subgroups, number",A549 cells [4],4
same,"P1 subgroups, % of all P1 through P8 subgroups",A549 cells [4],(57.1) %
same,"P1 subgroups, number",A549 cells [4],4
same,"P2 subgroups, number",A549 cells [4],0
same,"P3 subgroups, % of all P1 through P8 subgroups",A549 cells [4],(42.8) %
same,"P3 subgroups, number",A549 cells [4],3
same,"P4 subgroups, number",A549 cells [4],0
same,"P5 subgroups, number",A549 cells [4],0
same,"P6 subgroups, number",A549 cells [4],0
same,"P7 subgroups, number",A549 cells [4],0
same,"P8 subgroups, number",A549 cells [4],0
same,"P1 + P2 subgroups, % of all P1 through P8 subgroups",A549 cells [4]; listed as wogonin,57.1%
same,"P1 subgroups, % of all P1 through P8 subgroups",A549 cells [4]; listed as wogonin,57.1%
same,"Mitoses with DNV, number",HeLa cells,31
same,"P1 + P2 subgroups, % of all P1 through P8 subgroups",HeLa cells,(61.2) %
same,"P1 + P2 subgroups, number",HeLa cells,19
same,"P1 subgroups, % of all P1 through P8 subgroups",HeLa cells,(51.6) %
same,"P1 subgroups, number",HeLa cells,16
same,"P2 subgroups, % of all P1 through P8 subgroups",HeLa cells,(9.6) %
same,"P2 subgroups, number",HeLa cells,3
same,"P3 subgroups, % of all P1 through P8 subgroups",HeLa cells,(32.2) %
same,"P3 subgroups, number",HeLa cells,10
same,"P4 subgroups, % of all P1 through P8 subgroups",HeLa cells,(6.4) %
same,"P4 subgroups, number",HeLa cells,2
same,"P5 subgroups, number",HeLa cells,0
same,"P6 subgroups, number",HeLa cells,0
same,"P7 subgroups, number",HeLa cells,0
same,"P8 subgroups, number",HeLa cells,0
same,"P1 + P2 subgroups, % of all P1 through P8 subgroups",HeLa cells; listed as wogonin,61.2%
same,"P1 subgroups, % of all P1 through P8 subgroups",HeLa cells; listed as wogonin,51.6%
